# Reference: patent publication US20090137662A1, “SYNERGY OF DOPAMINE D2 AND ADENOSINE A2 RECEPTORS ACTIVATES PKA SIGNALING VIA BETA/GAMMA DIMERS” (The Regents of the University of California, priority 2002, published 2009)
# Counter-ions that a name gives are not always drawn. Like-named read-outs stand apart in the source and are kept apart here.
# Experiments:
# ε-PKC [1] = type: cell-based
# Experimental: NG 108-15 or CHO cells were pre-incubated in the presence or absence of the indicated inhibitor for 30 min. (except for GF which was pre-incubated for 1 hour), then further incubated in the absence or presence of 200 mM ethanol for 30 min.
# ε-PKC [2] = test: Translocation of ε-PKC in NG108-15 and CHO cells expressing the applicable receptor; type: cell-based
# From the text: (§1) To determine whether addictive drugs other than ethanol would cause translocation of some proteins, we examine the effects of various receptor agonists and antagonists on ε-PKC δ-PKC or PKA Cα translocation in NG108-15 and CHO cells expressing the applicable receptor. […] Adenosine is also implicated in some behavioral effects of ethanol.
# (§2) The mechanisms underlying ethanol- and dopamine-mediated translocation of ε-PKC and δ-PKC were studied by altering the activity of various molecules that might be in the pathways leading to translocation.
# PKA Cα [3] = type: cell-based; conditions: for translocation of PKA-Cα after co-incubation with NPA: 10 minute co-incubation with 10^−10M NPA, 10^−11M DADLE or 2×10^−10M methanindamide
# From the text: as §1
# PKA Cα [4] = test: PKA Cα translocation in primary cultures of hippocampal neurons; conditions: for effect of agent alone on PKA Cα localization: data not shown
# [5] = tested on: CRE-regulated luciferase expression; test: CRE-luciferase reporter in NG108-15 cells; type: cell-based
# Experimental: Luciferase is used as a reporter gene in a transient expression system to identify substances that alter the effects of ethanol on CRE-regulated gene expression. Cells are cultured as described in Dohrman et al., Proc Natl Acad Sci USA (1996) 93:10217-10221, and are transfected using Effectene (Qiagene) as described by the manufacturers. Twenty-four hours after transfection the cells are treated with 200 mM ethanol for 30 min. to 36 hr. Luciferase activity is measured using Luciferase Assay System (Promega) and normalized to β-galactosidase activity.
# (§3) NG108-15 cells were co-transfected with a fusion construct containing the cAMP response element (CRE) fused to luciferase as a reporter gene (Stratagene).
# Since the ERK/MAPK pathway may regulate CREB phosphorylation and CRE-mediated gene expression, NG108-15 cells having the luciferase construct were co-incubated with 200 mM ethanol and a MEK inhibitor (PD98059 (2 nM, Calbiochem, San Diego, Calif.) or U0126 (1 μM, Calbiochem, San Diego, Calif.)) or a dominant negative MEK construct (DN-MEK, Dr. R. Seger) in which Lys-97 was replaced by alanine.
# as §3
# δ-PKC [6] = test: Translocation of δ-PKC in NG108-15 and CHO cells expressing the applicable receptor; type: cell-based; conditions: PKA agonist Sp-cAMPS, or forskolin or PGE1 to increase cAMP levels
# From the text: as §1, §2
# δ-PKC [7] = type: cell-based; conditions: naive NG108-15 cells; 100 nM PMA, 10 min.
# Experimental: (§4) Naive NG108-15 cells were, therefore, incubated in for ten (10) min. in 100 nM PMA, to then determine localization of δ-PKC and ε-PKC.
# ε-PKC [8] = type: cell-based; conditions: naive NG108-15 cells; 100 nM PMA, 10 min.
# Experimental: as §4
# [9] = NG108-15 cells, H-89 10 μM, PD98059 2 nM, U0126 1 μM, DN-RIα, DN-MEK, CREB-M1 constructs co-transfected
# [10] = NG108-15 cells expressing the applicable receptor, 200 mM Ethanol, 50 nM NPA, 1 μM D-ala-D-leu-enkephalin, 2 μM R(+) methanindamide, 20 μM Carbachol, 10^−5 M UK14304, 20 nM CCPA, 100 nM CGS-21680 HCl, None: Perinucleus
# [11] = CHO cells expressing the dopamine D2 receptor
# [12] = NG108-15 cells expressing the dopamine D2 receptor
structure (smiles),measurement,setting,value
"CN(C)CCCn1cc(C2=C(c3c[nH]c4ccccc34)C(=O)NC2=O)c2ccccc21 [GF, Bisindoylmaleimide I]",Predominant ε-PKC Localization (ethanol + inhibitor),ε-PKC [1],Perinucleus
CCCCC/C=C\C/C=C\C/C=C\C/C=C\CCCC(=O)N[C@H](C)CO [R(+) methanindamide],Predominant Localization of ε-PKC (agent alone),ε-PKC [2],Cytoplasm
same,translocation of PKA-Cα after co-incubation with ethanol,PKA Cα [3],Synergistic translocation
same,translocation of PKA-Cα after co-incubation with NPA,PKA Cα [3],Synergistic translocation
C#CCn1c(=O)c2c(ncn2C)n(C)c1=O [DMPX],effect on NPA-induced PKA Cα translocation,"PKA Cα [4]; primary hippocampal neurons, 50 nM NPA, spiperone 10 μM, DPCPX 100 nM, DMPX 10 μM 30 min, Rp-cAMPS 20 μM 1.5 hours, PTX 50 ng/ml or Ad5QEHA overnight",do not affect
same,effect of agent alone on PKA Cα localization,PKA Cα [4]; primary hippocampal neurons,no effect
O=S(=O)(NCCNC/C=C/c1ccc(Br)cc1)c1cccc2cnccc12 [H-89],effect on the increase in luciferase expression after 14 hours of exposure to 200 mM ethanol,[5]; [9],inhibit the increase in luciferase expression
Brc1c(NC2=NCCN2)ccc2nccnc12 [UK14304],Predominant Localization of ε-PKC (agent alone),ε-PKC [2]; [10],Perinucleus
CCNC(=O)[C@H]1O[C@@H](n2cnc3c(N)nc(NCCc4ccc(CCC(=O)O)cc4)nc32)[C@H](O)[C@@H]1O [CGS-21680 HCl],Predominant Localization of ε-PKC (agent alone),ε-PKC [2]; [10],Cytoplasm
COc1cccc(-c2cc(=O)c3ccccc3o2)c1N [PD98059],effect on the increase in luciferase expression after 14 hours of exposure to 200 mM ethanol,[5]; [9],eliminated the increase in luciferase activity
C[N+](C)(C)CCOC(N)=O [Carbachol],Predominant Localization of ε-PKC (agent alone),ε-PKC [2]; [10],Perinucleus
"Cl.c1ccc([C@@H]2CCC[C@@H]2NC2=NCCCCCCCCCCC2)cc1 [MDL 12, 330A Hydrochloride]",Predominant ε-PKC Localization (ethanol + inhibitor),ε-PKC [1],Perinucleus
"OC[C@H]1O[C@@H](n2cnc3c(NC4CCCC4)nc(Cl)nc32)[C@H](O)[C@@H]1O [CCPA, 2-chloro-N^6-cyclopentyladenosine]",Predominant Localization of ε-PKC (agent alone),ε-PKC [2]; [10],Cytoplasm
Nc1ncnc2c1ncn2[C@@H]1O[C@@H]2COP(O)(=S)O[C@H]2[C@H]1O (some centres unmarked) [Sp-cAMPS],translocation of ε PKC on activation of PKA,"ε-PKC [2]; PKA agonist Sp-cAMPS, or forskolin or PGE1 to increase cAMP levels",translocate to the cytoplasm
same,translocation of δ PKC on activation of PKA,δ-PKC [6],did not induce translocation
COc1ccc2c(c1)CC[C@@H]1[C@@H]2CC[C@]2(C)[C@@H](NCCCCCCN3C(=O)C=CC3=O)CC[C@@H]12 [U 73122],Predominant ε-PKC Localization (ethanol + inhibitor),ε-PKC [1],Perinucleus
same,inhibition of ethanol-induced translocation of ε-PKC,ε-PKC [2]; [11],87%
same,inhibition of ethanol-induced translocation of ε-PKC,ε-PKC [2]; [12],84%
"CC(C)C[C@@H](NC(=O)[C@H](Cc1ccccc1)NC(=O)CNC(=O)[C@@H](C)NC(=O)[C@@H](N)Cc1ccc(O)cc1)C(=O)O [DADLE, enkephalin (D-ala2,D-leu5)]",increase in luciferase expression,"[5]; NG108-15 cells, 10 nM DADLE, four hours",40%
same,Predominant Localization of ε-PKC (agent alone),ε-PKC [2],Cytoplasm
same,translocation of PKA-Cα after co-incubation with ethanol,PKA Cα [3],Synergistic translocation
same,translocation of PKA-Cα after co-incubation with NPA,PKA Cα [3],Synergistic translocation
same,translocation of PKA-Cα after co-incubation of δ-opioid and cannabinoid,PKA Cα [3]; 10 minute coincubation of 10^−11M DADLE and 2×10^−10M methanindamide,did not result in synergistic translocation
CCCCCCCCCCCCCCCCCCOCC(COP(=O)([O-])OCC[N+](C)(C)C)OC (centres unmarked) [Et-18-OCH3],Predominant ε-PKC Localization (ethanol + inhibitor),ε-PKC [1],Perinucleus
same,inhibition of ethanol-induced translocation of ε-PKC,ε-PKC [2]; [11],87%
same,inhibition of ethanol-induced translocation of ε-PKC,ε-PKC [2]; [12],96%
CCCn1c(=O)c2[nH]c(C3CCCC3)nc2n(CCC)c1=O [DPCPX],effect on NPA-induced PKA Cα translocation,PKA Cα [4],do not affect
same,effect on ethanol-induced PKA Cα translocation,PKA Cα [4],prevents
same,effect of agent alone on PKA Cα localization,PKA Cα [4]; primary hippocampal neurons,no effect
N#CC(=C(/N)Sc1ccccc1N)/C(C#N)=C(\N)Sc1ccccc1N [U0126],effect on the increase in luciferase expression after 14 hours of exposure to 200 mM ethanol,[5],eliminated the increase in luciferase activity
"CCCCCCCCCCCCCC(=O)O[C@@H]1[C@@H](C)[C@@]2(O)[C@@H](C=C(CO)C[C@]3(O)C(=O)C(C)=C[C@@H]23)[C@@H]2C(C)(C)[C@]12OC(C)=O [PMA, phorbol myristate acetate]",localization of δ-PKC on activation by PMA,δ-PKC [7],mainly translocated to the perinucleus
same,localization of ε-PKC on activation by PMA,ε-PKC [8],nuclear and perinuclear localization
